Assays:
Assay type in all cases: in vivo
[1] = test system: sedge, umbrella (small-flower umbrella sedge, Cyperus difformis); assay: Test B flooded paddy test; settings: Cyperus difformis, 250 g ai/ha, Flood; 0 to 100 scale where 0 is no effect and 100 is complete control; read-out: Sedge, Umbrella plant response rating
Outline: (§1)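 2-leaf plants; pots flooded 3 cm over soil; cpd added to paddy water; depth held; greenhouse 13–15 d; visual rating vs controls, 0 = no effect, 100 = complete control.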

rice (Oryra sativa) = assay: Test B flooded paddy test; settings: Oryza sativa, 250 g ai/ha, Flood; 0 to 100 scale where 0 is no effect and 100 is complete control; read-out: Rice plant response rating
Outline: as §1

[2] = test system: barnyardgrass (Echinochloa crus-galli); assay: Test B flooded paddy test; settings: Echinochloa crus-galli, 250 g ai/ha, Flood; 0 to 100 scale where 0 is no effect and 100 is complete control; read-out: Barnyardgrass plant response rating
Outline: as §1

[3] = test system: ducksalad (Heteranthera limosa); assay: Test B flooded paddy test; settings: Heteranthera limosa, 250 g ai/ha, Flood; 0 to 100 scale where 0 is no effect and 100 is complete control; read-out: Ducksalad plant response rating
Outline: as §1

[4] = test system: pigweed (Amaranthus retroflexus); assay: Test A preemergence; settings: Amaranthus retroflexus, pre-emergence, 240 h, preemergence, read-out: Pigweed plant response rating; for pest or weed control at 125 g/ha: 125 g ai/ha, approx. 10 d; for pest or weed control at 500 g/ha: 500 g ai/ha
[5] = test system: Galium (catchweed bedstraw, Galium aparine); assay: Test A postemergence; settings: Galium, post-emergence, 240 h, postemergence, read-out: Galium plant response rating; for pest or weed control at 125 g/ha: 125 g ai/ha, visual injury on 0 to 100 scale (0 no effect, 100 complete control), approx. 10 d; for pest or weed control at 500 g/ha: 500 g ai/ha, 0 to 100 scale, 0 is no effect, 100 is complete control
Outline: (§2)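 Seeds sprayed preemergence with a directed soil spray, or plants at 2 to 10 cm height and one- to two-leaf stage sprayed postemergence, with test chemicals in a non-phytotoxic solvent mixture containing surfactant, in loam soil–sand blend. Injury rated visually against untreated controls after about 10 d in greenhouse, 0 (no effect) to 100 (complete control).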

[6] = test system: wheat (Triticum aestivum); assay: Test A postemergence; settings: Triticum aestivum, post-emergence, 240 h, postemergence, read-out: Wheat plant response rating; for plant injury at 125 g/ha: 125 g ai/ha, visual injury on 0 to 100 scale (0 no effect, 100 complete control), approx. 10 d; for plant injury at 500 g/ha: 500 g ai/ha, 0 to 100 scale, 0 is no effect, 100 is complete control
Outline: as §2

[7] = test system: pigweed (Amaranthus retroflexus); assay: Test A postemergence; settings: Amaranthus retroflexus, post-emergence, 240 h, postemergence, read-out: Pigweed plant response rating; for pest or weed control at 125 g/ha: 125 g ai/ha, visual injury on 0 to 100 scale (0 no effect, 100 complete control), approx. 10 d; for pest or weed control at 500 g/ha: 500 g ai/ha, 0 to 100 scale, 0 is no effect, 100 is complete control
Outline: as §2

[8] = test system: giant foxtail (Setaria faberii); assay: Test A postemergence; settings: Setaria faberi, post-emergence, 240 h, postemergence, read-out: Foxtail, Giant plant response rating; for pest or weed control at 125 g/ha: 125 g ai/ha, visual injury on 0 to 100 scale (0 no effect, 100 complete control), approx. 10 d; for pest or weed control at 500 g/ha: 500 g ai/ha, 0 to 100 scale, 0 is no effect, 100 is complete control
Outline: as §2

[9] = test system: ragweed (common ragweed, Ambrosia elatior); assay: Test A postemergence; settings: Ambrosia artemisiifolia, post-emergence, 240 h, postemergence, read-out: Ragweed plant response rating; for pest or weed control at 125 g/ha: 125 g ai/ha, visual injury on 0 to 100 scale (0 no effect, 100 complete control), approx. 10 d; for pest or weed control at 500 g/ha: 500 g ai/ha, 0 to 100 scale, 0 is no effect, 100 is complete control
Outline: as §2

[10] = test system: ryegrass, Italian (Italian ryegrass, Lolium multiflorum); assay: Test A postemergence; settings: Lolium multiflorum, post-emergence, 240 h, postemergence, read-out: Ryegrass, Italian plant response rating; for pest or weed control at 125 g/ha: 125 g ai/ha, visual injury on 0 to 100 scale (0 no effect, 100 complete control), approx. 10 d; for pest or weed control at 500 g/ha: 500 g ai/ha, 0 to 100 scale, 0 is no effect, 100 is complete control
Outline: as §2

corn (Zea mays) = assay: Test A postemergence; settings: Zea mays, post-emergence, 240 h, postemergence, read-out: Corn plant response rating; for plant injury at 125 g/ha: 125 g ai/ha, visual injury on 0 to 100 scale (0 no effect, 100 complete control), approx. 10 d; for plant injury at 500 g/ha: 500 g ai/ha, 0 to 100 scale, 0 is no effect, 100 is complete control
Outline: as §2

[11] = test system: blackgrass (Alopecurus myosuroides); assay: Test A postemergence; settings: Alopecurus myosuroides, post-emergence, 240 h, postemergence, read-out: Blackgrass plant response rating; for pest or weed control at 125 g/ha: 125 g ai/ha, visual injury on 0 to 100 scale (0 no effect, 100 complete control), approx. 10 d; for pest or weed control at 500 g/ha: 500 g ai/ha, 0 to 100 scale, 0 is no effect, 100 is complete control
Outline: as §2

Kochia (Kochia scoparia) = assay: Test A postemergence; settings: Bassia scoparia, post-emergence, 240 h, postemergence, read-out: Kochia plant response rating; for pest or weed control at 125 g/ha: 125 g ai/ha, visual injury on 0 to 100 scale (0 no effect, 100 complete control), approx. 10 d; for pest or weed control at 500 g/ha: 500 g ai/ha, 0 to 100 scale, 0 is no effect, 100 is complete control
Outline: as §2

[12] = test system: barnyardgrass (Echinochloa crus-galli); assay: Test A postemergence; settings: Echinochloa crus-galli, post-emergence, 240 h, postemergence, read-out: Barnyardgrass plant response rating; for pest or weed control at 125 g/ha: 125 g ai/ha, visual injury on 0 to 100 scale (0 no effect, 100 complete control), approx. 10 d; for pest or weed control at 500 g/ha: 500 g ai/ha, 0 to 100 scale, 0 is no effect, 100 is complete control
Outline: as §2

[13] = 0 to 100 scale where 0 is no effect and 100 is complete control

O=C1NC[C@H](c2csc(C(F)F)c2)[C@H]1C(=O)Nc1ccccc1F [Compound 1118]
90%: pest or weed control at 500 g/ha [12]
100%: pest or weed control at 250 g/ha [3]
50%: pest or weed control at 125 g/ha [5] | pest or weed control at 500 g/ha [8] | pest or weed control at 500 g/ha [10]
60%: pest or weed control at 500 g/ha [5] | pest or weed control at 500 g/ha [11]
80%: pest or weed control at 125 g/ha [12]
40%: pest or weed control at 250 g/ha (rice (Oryra sativa))
20%: plant injury at 125 g/ha [6] | plant injury at 500 g/ha [6] | pest or weed control at 500 g/ha [7] | pest or weed control at 500 g/ha [9] | pest or weed control at 125 g/ha [10] | plant injury at 500 g/ha (corn (Zea mays)) | pest or weed control at 125 g/ha [11]
65%: pest or weed control at 250 g/ha [2]
30%: pest or weed control at 500 g/ha (Kochia (Kochia scoparia))
0%: pest or weed control at 250 g/ha [1] | pest or weed control at 125 g/ha [4, 13] | pest or weed control at 500 g/ha [4, 13] | pest or weed control at 125 g/ha [7] | pest or weed control at 125 g/ha [8] | pest or weed control at 125 g/ha [9] | plant injury at 125 g/ha (corn (Zea mays)) | pest or weed control at 125 g/ha (Kochia (Kochia scoparia))

CC(C)=CC1CNC(=O)C1C(=O)Nc1ccccc1S(C)(=O)=O (stereo not shown) [Compound 1057]
30%: pest or weed control at 250 g/ha [2]
0%: pest or weed control at 250 g/ha [1] | pest or weed control at 250 g/ha (rice (Oryra sativa)) | pest or weed control at 125 g/ha [4, 13] | pest or weed control at 500 g/ha ([4]; visual injury rating about 10 d after treatment, 0 to 100 scale (0 no effect, 100 complete control)) | pest or weed control at 125 g/ha [5] | pest or weed control at 500 g/ha [5] | plant injury at 125 g/ha [6] | plant injury at 500 g/ha [6] | pest or weed control at 125 g/ha [7] | pest or weed control at 500 g/ha [7] | pest or weed control at 125 g/ha [8] | pest or weed control at 500 g/ha [8] | pest or weed control at 125 g/ha [9] | pest or weed control at 500 g/ha [9] | pest or weed control at 125 g/ha [10] | pest or weed control at 500 g/ha [10] | plant injury at 125 g/ha (corn (Zea mays)) | plant injury at 500 g/ha (corn (Zea mays)) | pest or weed control at 125 g/ha [11] | pest or weed control at 500 g/ha [11] | pest or weed control at 125 g/ha (Kochia (Kochia scoparia)) | pest or weed control at 500 g/ha (Kochia (Kochia scoparia)) | pest or weed control at 125 g/ha [12] | pest or weed control at 500 g/ha [12]
85%: pest or weed control at 250 g/ha [3]
